Experiment [1] deals with Rat-1 cells. Nature of the experiment: DNA synthesis ([3H]-thymidine incorporation) in EGF-stimulated Rat-1 cells. The class given is cell-based. The note with it: 40 ng/ml EGF, 20 μg/ml coating, FIG. 6. The method, then: Rat-1 cells were plated at 1×10^5 cells/well on 24-well plates that had been coated for 12 hours either with 20 μg/ml of vitronectin or 20 μg/ml of type I collagen. Cells were incubated for 36 hours in Dulbecco's modified Eagle's medium containing 0.1% bovine serum albumin followed by addition of buffer or 40 ng/ml EGF (Boehringer Mannheim). After 15 hours, the cells were pulse-labeled with 1 μCi/ml [^3 H]-thymidine (specific activity 6.7 Ci/mmol, DuPont NEN) for 3 hours and thymidine incorporation into DNA was determined by liquid scintillation counting.
After being serum-starved, the cells were treated with buffer only (samples 1 and 2) or with EGF (samples 3 and 4). Data points are the average of triplicate samples.
On the technique in general: Dividing cells build labelled thymidine or BrdU into new DNA.

Experiment [2] relates to HIRcB, NIH 3T3, NRK, HT29, UCLA-P3 and Panc-1 cells. Description: Insulin responsiveness in a panel of αv β3 and αv β5 expressing cell lines on different substrates. Type of experiment: cell-based. Conditions: panel of six cell lines. From the text:
A correlation between αv β3 expression and increased insulin responsiveness on vitronectin was also found in a panel of three cell lines expressing αv β3 and three lines expressing only αv β5. […] All the cell lines attached equally to vitronectin. NRK, HT29, UCLA-P3 and Panc-1 attached also to laminin and collagen, and HIRcB and NIH 3T3 cells attached to laminin. The attachment to laminin and collagen was inhibited by anti-β1 antibodies (Vuori and Ruoslahti, unpublished data, and Hayman et al., J. Cell Biol. 100:1948 (1985); Hayashi et al., J. Cell biol. 110:175 (1990); Schreiner et al., Clin. Expl. Metastasis 9:163 (1991); and Cheresh et al., supra).

The subject of experiment [3] is FG-C cells (αv β3 integrin negative human pancreatic carcinoma cells). Description: DNA synthesis ([3H]-thymidine incorporation) in insulin-stimulated FG-C cells on vitronectin or type I collagen. Type of experiment: cell-based. Conditions: lack αv β3, FIG. 4 columns 3, 4, 7, 8, 11, 12. The procedure:
(§1) FG-B (columns 1, 2, 5, 6, 9, and 10) and FG-C cells (columns 3, 4, 7, 8, 11, and 12) were plated at 1×10^5 cells/well on 24-well plates that had been coated either with vitronectin (dark column) or type I collagen (open column). Plates were coated with 10 μg/ml of either vitronectin or type I collagen for 12 hours followed by blocking with 0.5% bovine serum albumin for 2 hours. Cells were incubated for 36 hours in DMEM containing 10% FCS (columns 1 to 4), or in DMEM containing 0.1% BSA followed by addition of buffer (columns 5 to 8) or 100 mM insulin (columns 9 to 12). FCS is used as a control because it provides maximal stimulation owing to the presence of high levels of growth factors and adhesion proteins.
(§2) After 15 hours, the cells were pulse-labeled with 1 μCi/ml [^3 H]-thymidine (specific activity 6.7 Ci/mmol, DuPont NEN) for 3 hours and thymidine incorporation into DNA was determined by trichloroacetic acid precipitation and liquid scintillation counting. Error bars indicate the standard error of triplicate determinations.

Experiment [4] concerns αv β3 integrin-IRS-1 association. Description: Association of IRS-1 with the vitronectin receptor (αv β3) in insulin-stimulated HIRcB cells, immunoprecipitation/immunoblot densitometry. Type of experiment: cell-based, rat. The method, then:
HIRcB cells were grown to 80% confluency in Dulbeccos's modified Eagle's medium (DMEM) containing 10% fetal calf serum (FCS) and 500 nM methotrexate, incubated in DMEM +0.1% BSA for 36 hours, and either left quiescent, or stimulated with 100 nM insulin (Sigma) for 3 minutes. Cell monolayers were rinsed with PBS, frozen with liquid nitrogen and lysed in NP-40 lysis buffer (20 mM Tris-HCl (pH 8.0), 1% NP-40, 10% glycerol, 137 mM NaCl, 1 mM CaCl2, 1 mM MgCl2, 1 mM sodium orthovanadate, 50 mM sodium fluoride, 1 mM phenylmethylsulfonylfluoride, 0.1 U/ml aprotinin, 10 μg/ml pepstatin A). HIRcB cells were immunoprecipitated with anti-αv β3 237 according to Suzuki et al., PNAS USA 83:8614 (1986), as shown in lanes 1 and 3, 237 preimmune serum in lane 2, anti-αv β3 1343 in lane 4, anti-αv β3 in lane 5, anti-α5 β1488 in lane 6 (made according to Argraves et al., J. Cell Biol. 105:1183 (1987)) and an unrelated rabbit antiserum (lane 7). Anti-αv β3 1343 was obtained from a person (Telios Pharmaceuticals, Inc.) and anti-αIIb β3 from Dr. Elisabetta Dejana (Mario Negri Institute, Milan, Italy). Three anti-α5 β1 antibodies and six unrelated polyclonal antibodies tested gave results similar to those shown in lanes 6 and 7. […] In lane 8, anti-αv β3 237 immunocomplexes from insulin-treated cells were dissociated and reprecipitated with the same antibody as follows. […]

In experiment [5] the test system is FG-B cells (αv β3 integrin positive human pancreatic carcinoma cells). Nature of the experiment: DNA synthesis ([3H]-thymidine incorporation) in insulin-stimulated FG-B cells on vitronectin or type I collagen. The class given is cell-based. The note with it: 100 mM insulin, plates coated with 10 μg/ml vitronectin or type I collagen, FIG. 4 columns 9, 10. The procedure:
as §1, §2

Experiment [6] has as its system NRK cells. Nature of the experiment: DNA synthesis in IGF-1-treated NRK cells on vitronectin, collagen or laminin. Type of experiment: cell-based. Conditions: data not shown.
In experiment [7] the test system is human foreskin fibroblasts. Description: DNA synthesis ([3H]-thymidine incorporation) in PDGF-stimulated human foreskin fibroblasts. Type of experiment: cell-based. Conditions: 40 ng/ml PDGF-BB, 20 μg/ml coating, FIG. 5 column 3 vs 4. The method, then: Human foreskin fibroblasts (Coriell) were plated at 1×10^5 cells/well on 24-well plates that had been coated for 12 hours either with 20 μg/ml of vitronectin of 20 μg/ml of type I collagen. Cells were incubated for 36 hours in Dulbecco's modified Eagle's medium containing 0.1% bovine serum albumin followed by addition of buffer or 40 ng/ml PDGF-BB (Boehringer Mannheim). After 15 hours, the cells were pulse-labeled with 1 μCi/ml [^3 H]-thymidine (specific activity 6.7 Ci/mmol, DuPont NEN) for 3 hours and thymidine incorporation into DNA was determined by liquid scintillation counting.
Cells were serum-starved and treated with buffer only (samples 1 and 2) or with PDGF (samples 3 and 4). Data points are the average of duplicate samples.

On to “EGF: Epidermal growth factor (Boehringer Mannheim) (NSDSECPLSHDGYCLHDGVCMYIEALDKYACNCVVGYIGERCQYRDLKWWELR; UniProt P01133 971-1023, looked up)”, for which the “DNA synthesis response to EGF on vitronectin versus collagen” value in experiment [1] is listed as “same response”.
Regarding insulin, the “effect of attachment to laminin on insulin responsiveness” value in experiment [2] was “did not increase”. In addition, in experiment [3], the “difference in the DNA synthesis response on vitronectin and collagen” value is “no difference”. Besides, the “time of insulin stimulation to maximal IRS-1-vitronectin receptor association” value in experiment [4] (HIRcB cells) worked out at 3 min. Further, the “IRS-1 complexed with the vitronectin receptor” value in experiment [4] (insulin-stimulated HIRcB cells, share of IRS-1 of total cell lysate) is on record as “Five to eight”. In experiment [5], the “higher DNA synthesis in response to insulin when plated on vitronectin than on collagen” value is listed as “about 2.5 fold”.
In the case of “IGF-1: insulin-like growth factor (IGF-1), signals through IRS-1”, in experiment [6], the “higher DNA synthesis in response to IGF-1 when plated on vitronectin than on collagen or laminin” value was “about 2.3 fold”.
“PDGF: platelet derived growth factor, PDGF-BB (Boehringer Mannheim)”: the “higher DNA synthesis in response to PDGF when plated on vitronectin than on collagen” value in experiment [7] was “about 2.3 fold”.

These data come from patent US5654267A, “Cooperative combinations of ligands contained within a matrix” (La Jolla Cancer Research Center, priority 1994, dated 1997).
